# Assay results as given in US6960574B2, “Antagonists of RF-amide neuropeptides” (University of Florida, priority 2002, dated 2005).
# Square brackets hold non-standard residues; d marks the D form. Peptide text beside a SMILES is read from it. * marks the point of attachment. ξ: configuration not given here. Dansyl = CN(C)c1cccc2c(S(=O)(=O)*)cccc12; ξL = CC(C)CC(N)C(=O)O
# Tested on: receptor labeled by the radioiodinated analogue of 1 (4, [125I]-YLFQPQRF-NH2); neuropeptide FF receptor
# Assay: Competitive radioligand binding against 4 ([125I]Y8F-amide)
# Conditions: mixture-based positional scanning; difference from averaged radioligand displacement of whole library (0); about 80 a.u. = 10-fold change in Ki
row,Structure (SMILES),Relative Binding Index (RBI) [a.u.]
1,CSCC[C@H](NS(=O)(=O)c1cccc2c(N(C)C)cccc12)C(=O)N[C@@H](Cc1ccccc1)C(=O)N[C@@H](CCCNC(=N)N)C(N)=O [Dansyl-MFR-amide] (Dansyl-Met-Phe-Arg-NH2),−45
2,CN(C)c1cccc2c(S(=O)(=O)N[C@@H](CCCCN)C(=O)N3CCC[C@H]3C(=O)N[C@@H](CCCNC(=N)N)C(N)=O)cccc12 [Dansyl-KPR-amide] (Dansyl-Lys-Pro-Arg-NH2),28
3,CC(C)[C@H](NS(=O)(=O)c1cccc2c(N(C)C)cccc12)C(=O)N[C@@H](Cc1ccccc1)C(=O)N[C@@H](CCCNC(=N)N)C(N)=O [Dansyl-VFR-amide] (Dansyl-Val-Phe-Arg-NH2),−6
4,CN(C)c1cccc2c(S(=O)(=O)N[C@@H](Cc3c[nH]c4ccccc34)C(=O)NCC(=O)N[C@@H](CCCNC(=N)N)C(N)=O)cccc12 [Dansyl-WGR-amide] (Dansyl-Trp-Gly-Arg-NH2),14
5,CN(C)c1cccc2c(S(=O)(=O)N[C@@H](Cc3c[nH]cn3)C(=O)N[C@@H](CC(N)=O)C(=O)N[C@@H](CCCNC(=N)N)C(N)=O)cccc12 [Dansyl-HNR-amide] (Dansyl-His-Asn-Arg-NH2),18
6,CC[C@H](C)[C@H](NS(=O)(=O)c1cccc2c(N(C)C)cccc12)C(=O)N[C@@H](Cc1ccc(O)cc1)C(=O)N[C@@H](CCCNC(=N)N)C(N)=O [Dansyl-IYR-amide] (Dansyl-Ile-Tyr-Arg-NH2),−12
7,CN(C)c1cccc2c(S(=O)(=O)N3CCC[C@H]3C(=O)N[C@@H](CCCCN)C(=O)N[C@@H](CCCNC(=N)N)C(N)=O)cccc12 [Dansyl-PKR-amide] (Dansyl-Pro-Lys-Arg-NH2),−50
8,CN(C)c1cccc2c(S(=O)(=O)N[C@@H](CO)C(=O)NCC(=O)N[C@@H](CCCNC(=N)N)C(N)=O)cccc12 [Dansyl-SGR-amide] (Dansyl-Ser-Gly-Arg-NH2),22
9,CN(C)c1cccc2c(S(=O)(=O)N[C@@H](CCC(N)=O)C(=O)N[C@@H](CC(N)=O)C(=O)N[C@@H](CCCNC(=N)N)C(N)=O)cccc12 [Dansyl-QNR-amide] (Dansyl-Gln-Asn-Arg-NH2),23
10,CN(C)c1cccc2c(S(=O)(=O)N3CCC[C@H]3C(=O)N[C@@H](Cc3cnc[nH]3)C(=O)N[C@@H](CCCNC(=N)N)C(N)=O)cccc12 [Dansyl-PHR-amide] (Dansyl-Pro-His-Arg-NH2),−54
11,CC(C)C[C@H](NC(=O)[C@H](CC(=O)O)NS(=O)(=O)c1cccc2c(N(C)C)cccc12)C(=O)N[C@@H](CCCNC(=N)N)C(N)=O [Dansyl-DLR-amide] (Dansyl-Asp-Leu-Arg-NH2),−14
12,CSCC[C@H](NS(=O)(=O)c1cccc2c(N(C)C)cccc12)C(=O)N[C@@H](C)C(=O)N[C@@H](CCCNC(=N)N)C(N)=O [Dansyl-MAR-amide] (Dansyl-Met-Ala-Arg-NH2),−93
13,CN(C)c1cccc2c(S(=O)(=O)NCC(=O)N[C@@H](Cc3c[nH]c4ccccc34)C(=O)N[C@@H](CCCNC(=N)N)C(N)=O)cccc12 [Dansyl-GWR-amide] (Dansyl-Gly-Trp-Arg-NH2),34
14,CN(C)c1cccc2c(S(=O)(=O)N[C@@H](CCC(=O)O)C(=O)N[C@@H](Cc3cnc[nH]3)C(=O)N[C@@H](CCCNC(=N)N)C(N)=O)cccc12 [Dansyl-EHR-amide] (Dansyl-Glu-His-Arg-NH2),11
15,C[C@@H](O)[C@H](NS(=O)(=O)c1cccc2c(N(C)C)cccc12)C(=O)N1CCC[C@H]1C(=O)N[C@@H](CCCNC(=N)N)C(N)=O [Dansyl-TPR-amide] (Dansyl-Thr-Pro-Arg-NH2),−5
16,CC(C)[C@H](NC(=O)[C@H](Cc1ccccc1)NS(=O)(=O)c1cccc2c(N(C)C)cccc12)C(=O)N[C@@H](CCCNC(=N)N)C(N)=O [Dansyl-FVR-amide] (Dansyl-Phe-Val-Arg-NH2),5
17,CN(C)c1cccc2c(S(=O)(=O)N[C@@H](CCC(=O)O)C(=O)N3CCC[C@H]3C(=O)N[C@@H](CCCNC(=N)N)C(N)=O)cccc12 [Dansyl-EPR-amide] (Dansyl-Glu-Pro-Arg-NH2),20
18,CN(C)c1cccc2c(S(=O)(=O)N[C@@H](CCCCN)C(=O)N[C@@H](CO)C(=O)N[C@@H](CCCNC(=N)N)C(N)=O)cccc12 [Dansyl-KSR-amide] (Dansyl-Lys-Ser-Arg-NH2),45
19,CC(C)C[C@H](NS(=O)(=O)c1cccc2c(N(C)C)cccc12)C(=O)N1CCC[C@H]1C(=O)N[C@@H](CCCNC(=N)N)C(N)=O [Dansyl-LPR-amide] (Dansyl-Leu-Pro-Arg-NH2),−29
20,CC[C@H](C)[C@H](NC(=O)[C@H](CCSC)NS(=O)(=O)c1cccc2c(N(C)C)cccc12)C(=O)N[C@@H](CCCNC(=N)N)C(N)=O [Dansyl-MIR-amide] (Dansyl-Met-Ile-Arg-NH2),−37

row,Structure (SMILES),Relative Binding Index (RBI) [a.u.]
1,"CN(C)c1cccc2c(S(=O)(=O)N[C@@H](CCC(N)=O)C(=O)N[C@@H](CCC(N)=O)C(=O)N[C@@H](CCCNC(=N)N)C(N)=O)cccc12 [Dansyl-QQR-amide, dansyl-Gln-Gln-Arg-NH2] (Dansyl-Gln-Gln-Arg-NH2)",35
2,C[C@H](NC(=O)[C@H](CC(=O)O)NS(=O)(=O)c1cccc2c(N(C)C)cccc12)C(=O)N[C@@H](CCCNC(=N)N)C(N)=O [Dansyl-DAR-amide] (Dansyl-Asp-Ala-Arg-NH2),−55
3,CN(C)c1cccc2c(S(=O)(=O)N[C@@H](Cc3c[nH]c4ccccc34)C(=O)N[C@@H](CCCCN)C(=O)N[C@@H](CCCNC(=N)N)C(N)=O)cccc12 [Dansyl-WKR-amide] (Dansyl-Trp-Lys-Arg-NH2),6
4,CC[C@H](C)[C@H](NC(=O)[C@@H]1CCCN1S(=O)(=O)c1cccc2c(N(C)C)cccc12)C(=O)N[C@@H](CCCNC(=N)N)C(N)=O [Dansyl-PIR-amide] (Dansyl-Pro-Ile-Arg-NH2),−41
5,CN(C)c1cccc2c(S(=O)(=O)N[C@@H](CCCNC(=N)N)C(=O)NCC(=O)N[C@@H](CCCNC(=N)N)C(N)=O)cccc12 [Dansyl-RGR-amide] (Dansyl-Arg-Gly-Arg-NH2),12
6,CC[C@H](C)[C@H](NS(=O)(=O)c1cccc2c(N(C)C)cccc12)C(=O)N[C@@H](Cc1c[nH]cn1)C(=O)N[C@@H](CCCNC(=N)N)C(N)=O [Dansyl-IHR-amide] (Dansyl-Ile-His-Arg-NH2),−17
7,C[C@H](NS(=O)(=O)c1cccc2c(N(C)C)cccc12)C(=O)N[C@@H](CC(N)=O)C(=O)N[C@@H](CCCNC(=N)N)C(N)=O [Dansyl-ANR-amide] (Dansyl-Ala-Asn-Arg-NH2),13
8,CC(C)[C@H](NS(=O)(=O)c1cccc2c(N(C)C)cccc12)C(=O)N[C@@H](CO)C(=O)N[C@@H](CCCNC(=N)N)C(N)=O [Dansyl-VSR-amide],16
9,CN(C)c1cccc2c(S(=O)(=O)N3CCC[C@H]3C(=O)N[C@@H](CC(N)=O)C(=O)N[C@@H](CCCNC(=N)N)C(N)=O)cccc12 [Dansyl-PNR-amide] (Dansyl-Pro-Asn-Arg-NH2),−47
10,CN(C)c1cccc2c(S(=O)(=O)N[C@@H](Cc3ccc(O)cc3)C(=O)N3CCC[C@H]3C(=O)N[C@@H](CCCNC(=N)N)C(N)=O)cccc12 [Dansyl-YPR-amide] (Dansyl-Tyr-Pro-Arg-NH2),10
11,CN(C)c1cccc2c(S(=O)(=O)N[C@@H](CC(=O)O)C(=O)N[C@@H](Cc3ccccc3)C(=O)N[C@@H](CCCNC(=N)N)C(N)=O)cccc12 [Dansyl-DFR-amide] (Dansyl-Asp-Phe-Arg-NH2),−7
12,CSCC[C@H](NC(=O)[C@H](CC(=O)O)NS(=O)(=O)c1cccc2c(N(C)C)cccc12)C(=O)N[C@@H](CCCNC(=N)N)C(N)=O [Dansyl-DMR-amide] (Dansyl-Asp-Met-Arg-NH2),−6
13,CN(C)c1cccc2c(S(=O)(=O)N[C@@H](Cc3c[nH]c4ccccc34)C(=O)N[C@@H](CC(=O)O)C(=O)N[C@@H](CCCNC(=N)N)C(N)=O)cccc12 [Dansyl-WDR-amide] (Dansyl-Trp-Asp-Arg-NH2),−9
14,C[C@H](NS(=O)(=O)c1cccc2c(N(C)C)cccc12)C(=O)N[C@@H](Cc1c[nH]cn1)C(=O)N[C@@H](CCCNC(=N)N)C(N)=O [Dansyl-AHR-amide] (Dansyl-Ala-His-Arg-NH2),6
15,CC(C)CC(NC(=O)[C@H](CC(N)=O)NS(=O)(=O)c1cccc2c(N(C)C)cccc12)C(=O)N[C@@H](CCCNC(=N)N)C(N)=O (stereo partly shown) [Dansyl-NLR-amide] (Dansyl-Asn-[ξL]-Arg-NH2),4
16,CN(C)c1cccc2c(S(=O)(=O)N[C@@H](CCC(N)=O)C(=O)N[C@@H](CCCCN)C(=O)N[C@@H](CCCNC(=N)N)C(N)=O)cccc12 [Dansyl-QKR-amide] (Dansyl-Gln-Lys-Arg-NH2),19
17,CN(C)c1cccc2c(S(=O)(=O)N[C@@H](CC(N)=O)C(=O)N[C@@H](Cc3c[nH]cn3)C(=O)N[C@@H](CCCNC(=N)N)C(N)=O)cccc12 [Dansyl-NHR-amide] (Dansyl-Asn-His-Arg-NH2),7
18,CC[C@H](C)[C@H](NC(=O)[C@H](CO)NS(=O)(=O)c1cccc2c(N(C)C)cccc12)C(=O)N[C@@H](CCCNC(=N)N)C(N)=O [Dansyl-SIR-amide] (Dansyl-Ser-Ile-Arg-NH2),23
19,CC(C)[C@H](NS(=O)(=O)c1cccc2c(N(C)C)cccc12)C(=O)N[C@@H](CCC(N)=O)C(=O)N[C@@H](CCCNC(=N)N)C(N)=O [Dansyl-VQR-amide] (Dansyl-Val-Gln-Arg-NH2),9
20,CSCC[C@H](NC(=O)[C@@H]1CCCN1S(=O)(=O)c1cccc2c(N(C)C)cccc12)C(=O)N[C@@H](CCCNC(=N)N)C(N)=O [Dansyl-PMR-amide] (Dansyl-Pro-Met-Arg-NH2),−48
